PubChem BioAssay (NCI)
Several values for one entry are separate records, joined by “and”; a condition that tells them apart may be missing. Equal entries are not always repeated.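 Values below derive from 48-hour exposures of cells grown in 96-well plates, with endpoints linearly interpolated between the two concentrations bracketing the appropriate inhibition level. GI50 = concentration required for 50% inhibition of growth. TGI: total growth inhibition.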

These compounds were tested on HCT-15 colon (assay: NCI anticancer screen, dose series, 48 h).

| Compound | TGI | GI50 |
| --- | --- | --- |
| C[C@]12CCC(=O)C=C1CC[C@@H]1C2CC[C@]2(C)NC(=O)C(C#N)CC12 (stereo partly drawn) | > 100 µM |  |
| O=S(=O)(O)C(O)/C=C/c1ccccc1 (stereo not drawn) | > 100 µM |  |
| C/C(=N\NC(N)=S)c1ccc(C)cc1C | > 100 µM |  |
| OCc1c(-c2cccc3ccccc23)sc(-c2cccc3ccccc23)c1CO | 27.9 µM |  |
| CC1=CCCC(OC(N)=O)C1 (stereo not drawn) | > 100 µM |  |
| COc1cc2c(cc1O)[C@H](Cc1ccc(Oc3cc(C[C@H]4c5cc(OC)c(OC)cc5CCN4C)ccc3OC)cc1)NCC2 | 21.4 µM |  |
| Cc1c(C(=O)/C=C/c2cccc3ccccc23)[n+](=O)c2ccccc2n1[O-] | 27 µM |  |
| COC(=O)C(CC(=O)c1cc2c(cc1I)OCO2)Cc1cc(OC)c(OC)c(OC)c1I (stereo not drawn) | > 100 µM |  |
| COC(=O)c1c(OC)cccc1C(=O)O | > 100 µM |  |
| O=C(O)Cc1c[nH]c2ccc(F)cc12 | > 100 µM |  |
| O=C1c2ccccc2-c2c1c1cc3c(cc1c(=O)n2CCCCl)OCO3 | > 100 µM | > 100 µM |
| C#CC(C)(C)Oc1cc(O)c2c(=O)c3ccccc3n(C)c2c1 | > 100 µM |  |
| COc1ccc(CNC(=O)COc2ccc(/C=N/Nc3nc4ccccc4s3)cc2)cc1 | > 100 µM | 3.44 µM |
| CCCCn1/c(=N/C(=S)N(C)C)ss/c1=N\C(=S)N(C)C | > 100 µM |  |
| CNC(=O)c1cc(Oc2ccc3c(c2)sc2nc(-c4ccc(N)cc4)cn23)ccn1 | > 100 µM | 0.122 µM |
| Clc1cccc(NC=Nc2ccc(-c3nc4ccccc4s3)cc2)c1 | 20 µM | 9.48 µM |
| CCC1CCC2CCCC(C)N12 (stereo not drawn) | > 100 µM |  |
| O=C(O)CCCc1ccc(N(CCCl)CCCl)cc1 | > 76.3 µM and 307 µM and 239 µM | 29.6 µM and 117 µM |
| CC1CCC[P+](Cc2ccccc2)(c2ccccc2)CC1 (stereo not drawn) | > 100 µM |  |

What follows are compounds tested on NCI-H226 lung (assay: NCI anticancer screen, dose series, 48 h).

| Compound | TGI | GI50 |
| --- | --- | --- |
| CCCNC(=O)OCc1c(COC(=O)NCCC)c(-c2ccc(Cl)c(Cl)c2)n2c1CCC2 | 7.53 µM |  |
| O=C(O)/C=C/C(=O)Nc1ncn[nH]1 | > 100 µM |  |
| Cc1cccc2c3ccc4c(c3n(C)c12)C(=O)C=CC4=O | > 100 µM |  |
| CN(C)CCNC(=O)c1cccc2nc3c(Cl)cccc3nc12 | 13.5 µM |  |
| COc1nc2c(cc1S(=O)(=O)c1ccccc1)CCc1c-2cnn1-c1ccccc1Cl | > 100 µM | 4.91 µM |
| C[C@]12CCC(=O)C=C1CC[C@@H]1C2CC[C@]2(C)NC(=O)C(C#N)CC12 (stereo partly drawn) | > 100 µM |  |
| O=S(=O)(O)C(O)/C=C/c1ccccc1 (stereo not drawn) | > 100 µM |  |
| C/C(=N\NC(N)=S)c1ccc(C)cc1C | > 100 µM |  |
| OCc1c(-c2cccc3ccccc23)sc(-c2cccc3ccccc23)c1CO | 32.9 µM |  |
| COc1cc2c(cc1O)[C@H](Cc1ccc(Oc3cc(C[C@H]4c5cc(OC)c(OC)cc5CCN4C)ccc3OC)cc1)NCC2 | 26.2 µM |  |
| Cc1c(C(=O)/C=C/c2cccc3ccccc23)[n+](=O)c2ccccc2n1[O-] | 27.9 µM |  |
| Cc1nc2nnc(C)n2c2c1C(=O)Nc1ccccc1N2 | > 100 µM |  |
| CC1=C[C@@H]2Cc3occc3C(C)(C)[C@@H]2CC1 | 32.8 µM |  |
| CCCCCCCCCCCCCCC1OC(=O)c2ccccc21 (stereo not drawn) | > 100 µM |  |
| COC(=O)C(CC(=O)c1cc2c(cc1I)OCO2)Cc1cc(OC)c(OC)c(OC)c1I (stereo not drawn) | > 100 µM |  |
| COC(=O)c1c(OC)cccc1C(=O)O | > 100 µM |  |
| O=C(O)Cc1c[nH]c2ccc(F)cc12 | > 100 µM |  |
| C#CC(C)(C)Oc1cc(O)c2c(=O)c3ccccc3n(C)c2c1 | > 100 µM |  |
| CCCCn1/c(=N/C(=S)N(C)C)ss/c1=N\C(=S)N(C)C | > 100 µM |  |
| CN(C)CCNc1nc2ccccc2c2[nH]c3ccccc3c12 | 4.74 µM | 0.587 µM |
| CNC(=O)c1cc(Oc2ccc3c(c2)sc2nc(-c4ccc(N)cc4)cn23)ccn1 | > 100 µM | 2.01 µM |
| CCC1CCC2CCCC(C)N12 (stereo not drawn) | > 100 µM |  |
| O=C(O)CCCc1ccc(N(CCCl)CCCl)cc1 | 42.4 µM and 276 µM and 362 µM | 16.1 µM and 120 µM |

Each compound was assayed on SK-MEL-5 melanoma (assay: NCI anticancer screen, dose series, 48 h).

| Compound | TGI | GI50 |
| --- | --- | --- |
| O=C1CC[C@H]2CNC(=O)C[C@H]2C1 | > 100 µM |  |
| O=[N+]([O-])c1ccc(NSc2ccccc2)cc1 | > 100 µM |  |
| CCCNC(=O)OCc1c(COC(=O)NCCC)c(-c2ccc(Cl)c(Cl)c2)n2c1CCC2 | 19.5 µM |  |
| O=C(O)/C=C/C(=O)Nc1ncn[nH]1 | > 100 µM |  |
| COc1ccc(N=Cc2cc(OC)c(OC)c(OC)c2)cc1 | > 100 µM |  |
| CN(C)CCNC(=O)c1cccc2nc3c(Cl)cccc3nc12 | > 42.3 µM |  |
| COc1nc2c(cc1S(=O)(=O)c1ccccc1)CCc1c-2cnn1-c1ccccc1Cl | > 100 µM | 3.31 µM |
| C[C@]12CCC(=O)C=C1CC[C@@H]1C2CC[C@]2(C)NC(=O)C(C#N)CC12 (stereo partly drawn) | > 100 µM |  |
| O=S(=O)(O)C(O)/C=C/c1ccccc1 (stereo not drawn) | > 100 µM |  |
| C/C(=N\NC(N)=S)c1ccc(C)cc1C | > 100 µM |  |
| OCc1c(-c2cccc3ccccc23)sc(-c2cccc3ccccc23)c1CO | 23.6 µM |  |
| CC1=CCCC(OC(N)=O)C1 (stereo not drawn) | > 100 µM |  |
| CC1=C[C@@H]2Cc3occc3C(C)(C)[C@@H]2CC1 | 33.1 µM |  |
| COC(=O)C(CC(=O)c1cc2c(cc1I)OCO2)Cc1cc(OC)c(OC)c(OC)c1I (stereo not drawn) | > 100 µM |  |
| COC(=O)c1c(OC)cccc1C(=O)O | > 100 µM |  |
| O=C(O)Cc1c[nH]c2ccc(F)cc12 | > 100 µM |  |
| O=C1c2ccccc2-c2c1c1cc3c(cc1c(=O)n2CCCCl)OCO3 | > 100 µM | 33.5 µM |
| NC1(CCCCCCCCCCC(=O)O)CNCCNCCNCCNC1 | > 100 µM |  |
| C#CC(C)(C)Oc1cc(O)c2c(=O)c3ccccc3n(C)c2c1 | > 100 µM |  |
| COc1ccc(CNC(=O)COc2ccc(/C=N/Nc3nc4ccccc4s3)cc2)cc1 | 5.06 µM | 2.01 µM |
| CN(C)CCNc1nc2ccccc2c2[nH]c3ccccc3c12 | 3.94 µM | 1.61 µM |
| CNC(=O)c1cc(Oc2ccc3c(c2)sc2nc(-c4ccc(N)cc4)cn23)ccn1 | 11.5 µM | 0.222 µM |
| Clc1cccc(NC=Nc2ccc(-c3nc4ccccc4s3)cc2)c1 | 21.6 µM | 10.5 µM |
| O=C(O)CCCc1ccc(N(CCCl)CCCl)cc1 | 39.5 µM and 210 µM and 225 µM | 20.3 µM and 110 µM |
| CC1CCC[P+](Cc2ccccc2)(c2ccccc2)CC1 (stereo not drawn) | 35.9 µM |  |
